How the values were obtained:
Type in all cases: in vivo
[1] = tested on: Amaranthus retroflexus; assay: Post-emergence herbicidal efficacy at 320 g/ha, AMARE; conditions: rated visually after about 3 weeks vs untreated controls, 100% = plants have died
Excerpt: (§1) Unwanted plants/weeds: • ABUTH: Abutilon theophrasti • ALOMY: Alopecurus myosuroides • AMARE: Amaranthus retroflexus • DIGSA: Digitaria sanguinalis • ECHCG: Echinochloa crus-galli • KCHSC: Kochia scoparia • LOLRI: Lolium rigidum • MATIN: Matricaria inodora • POAAN: Poa annua • POLCO: Polygonum convolvulus • SETVI: Setaria viridis • STEME: Stellaria media • VERPE: Veronica persica • VIOTR: Viola tricolor A. Post-Emergence Herbicidal Efficacy at 320 g/ha
(§2) Seeds of mono- and dicotyledonous weed plants were placed in plastic pots in sandy loam soil (doubly sown with in each case one species of mono- or dicotyledonous weed plants per pot), covered with soil and cultivated in a greenhouse under controlled growth conditions. 2 to 3 weeks after sowing, the test plants were treated at the one-leaf stage. The compounds of the invention, formulated in the form of wettable powders (WP) or as emulsion concentrates (EC), were applied to the green parts of the plants as aqueous suspension or emulsion with addition of 0.5% additive at a water application rate equivalent to 600 litres per hectare. After the test plants had been kept in the greenhouse under optimum growth conditions for about 3 weeks, the activity of the preparations was rated visually in comparison to untreated controls.
(§3) For example, 100% activity=the plants have died, 0% activity=like control plants.
(§4) Tables A1 to A10 below show the effects of selected compounds of the general formula (I) according to Table 1 on various harmful plants and at an application rate corresponding to 320 g/ha, which were obtained by the trial procedure specified above.

[2] = tested on: Kochia scoparia; assay: Post-emergence herbicidal efficacy at 320 g/ha, KCHSC; conditions: rated visually after about 3 weeks vs untreated controls, 100% = plants have died
Excerpt: as §1, §2, §3, §4

[3] = tested on: Veronica persica; assay: Post-emergence herbicidal efficacy at 320 g/ha, VERPE; conditions: rated visually after about 3 weeks vs untreated controls, 100% = plants have died
Excerpt: as §1, §2, §3, §4

[4] = tested on: Amaranthus retroflexus; assay: Pre-emergence herbicide efficacy at 320 g/ha, AMARE; conditions: scored visually after about 3 weeks vs untreated controls, 100% = plants have died
Excerpt: as §1
(§5) Seeds of mono- and dicotyledonous weed plants were placed in plastic pots in sandy loam soil (doubly sown with one species each of mono- or dicotyledonous weed plants per pot) and covered with soil. The compounds of the invention, formulated in the form of wettable powders (WP) or as emulsion concentrates (EC), were then applied to the surface of the covering soil as aqueous suspension or emulsion with addition of 0.5% additive at a water application rate of 600 litres per hectare (converted). After the treatment, the pots were placed in a greenhouse and kept under good growth conditions for the test plants. After about 3 weeks, the efficacy of the preparations was scored visually in comparison with untreated controls as percentages.
as §3
(§6) Tables C1 to C12 below show the effects of selected compounds of the general formula (I) according to Table 1 on various harmful plants and at an application rate corresponding to 320 g/ha, which were obtained by the trial procedure specified above.

[5] = tested on: Stellaria media; assay: Post-emergence herbicidal efficacy at 320 g/ha, STEME; conditions: rated visually after about 3 weeks vs untreated controls, 100% = plants have died
Excerpt: as §1, §2, §3, §4

[6] = tested on: Abutilon theophrasti; assay: Post-emergence herbicidal efficacy at 320 g/ha, ABUTH; conditions: rated visually after about 3 weeks vs untreated controls, 100% = plants have died
Excerpt: as §1, §2, §3, §4

[7] = tested on: Setaria viridis; assay: Pre-emergence herbicide efficacy at 320 g/ha, SETVI; conditions: scored visually after about 3 weeks vs untreated controls, 100% = plants have died
Excerpt: as §1, §5, §3, §6

[8] = tested on: Stellaria media; assay: Pre-emergence herbicide efficacy at 320 g/ha, STEME; conditions: scored visually after about 3 weeks vs untreated controls, 100% = plants have died
Excerpt: as §1, §5, §3, §6

[9] = tested on: Digitaria sanguinalis; assay: Pre-emergence herbicide efficacy at 320 g/ha, DIGSA; conditions: scored visually after about 3 weeks vs untreated controls, 100% = plants have died
Excerpt: as §1, §5, §3, §6

[10] = tested on: Kochia scoparia; assay: Pre-emergence herbicide efficacy at 320 g/ha, KCHSC; conditions: scored visually after about 3 weeks vs untreated controls, 100% = plants have died
Excerpt: as §1, §5, §3, §6

[11] = tested on: Veronica persica; assay: Pre-emergence herbicide efficacy at 320 g/ha, VERPE; conditions: scored visually after about 3 weeks vs untreated controls, 100% = plants have died
Excerpt: as §1, §5, §3, §6

N#Cc1cccc(Nc2ccc(Cl)cn2)c1-n1cc(C(F)(F)F)cn1 [Example 1-59]
Post-emergence efficacy at 320 g/ha against AMARE in % [1]: 90%
Post-emergence efficacy at 320 g/ha against KCHSC in % [2]: 90%
Post-emergence efficacy at 320 g/ha against VERPE in % [3]: 100%
Pre-emergence efficacy at 320 g/ha against AMARE in % [4]: 90%

Clc1ccc(-c2ccccc2Nc2ncc(Cl)cn2)cc1 [Example 1-25]
Post-emergence efficacy at 320 g/ha against STEME in % [5]: 100%
Post-emergence efficacy at 320 g/ha against VERPE in % [3]: 90%

FC(F)(F)CCCc1ccccc1Nc1ccc(Cl)cn1 [Example 1-70]
Post-emergence efficacy at 320 g/ha against AMARE in % [1]: 100%
Post-emergence efficacy at 320 g/ha against VERPE in % [3]: 90%

N#Cc1cc(Cl)cnc1Nc1ccccc1CCCCC(F)(F)F [Example 1-76]
Post-emergence efficacy at 320 g/ha against AMARE in % [1]: 90%
Post-emergence efficacy at 320 g/ha against VERPE in % [3]: 90%

Cc1cc(C)c(-c2cc(C(F)F)no2)c(Nc2ccc(Cl)cn2)n1 [Example 2-7]
Post-emergence efficacy at 320 g/ha against VERPE in % [3]: 90%

N#Cc1cccc(Nc2ncc(C(F)(F)F)cn2)c1-n1cc(C(F)(F)F)cn1 [Example 1-41]
Post-emergence efficacy at 320 g/ha against VERPE in % [3]: 90%

COCc1cnn(-c2c(C#N)cccc2Nc2ncc(F)cn2)c1 [Example 1-69]
Post-emergence efficacy at 320 g/ha against ABUTH in % [6]: 90%
Post-emergence efficacy at 320 g/ha against AMARE in % [1]: 100%
Post-emergence efficacy at 320 g/ha against STEME in % [5]: 100%
Post-emergence efficacy at 320 g/ha against VERPE in % [3]: 100%
Pre-emergence efficacy at 320 g/ha against AMARE in % [4]: 100%
Pre-emergence efficacy at 320 g/ha against SETVI in % [7]: 90%
Pre-emergence efficacy at 320 g/ha against STEME in % [8]: 100%

N#Cc1cccc(Nc2ccc(F)cn2)c1-n1cc(C(F)(F)F)cn1 [Example 1-52]
Post-emergence efficacy at 320 g/ha against AMARE in % [1]: 90%
Post-emergence efficacy at 320 g/ha against VERPE in % [3]: 90%
Pre-emergence efficacy at 320 g/ha against AMARE in % [4]: 90%

N#Cc1cc(Cl)cnc1Nc1cccc(C#N)c1-n1cc(C(F)(F)F)cn1 [Example 1-55]
Post-emergence efficacy at 320 g/ha against AMARE in % [1]: 100%
Post-emergence efficacy at 320 g/ha against KCHSC in % [2]: 90%
Post-emergence efficacy at 320 g/ha against VERPE in % [3]: 100%
Pre-emergence efficacy at 320 g/ha against AMARE in % [4]: 100%

N#Cc1cccc(Nc2ncc(Cl)cn2)c1-n1cc(Br)cn1 [Example 1-73]
Post-emergence efficacy at 320 g/ha against AMARE in % [1]: 100%
Post-emergence efficacy at 320 g/ha against KCHSC in % [2]: 90%
Post-emergence efficacy at 320 g/ha against VERPE in % [3]: 90%

N#Cc1cccc(Nc2ncc(Cl)cn2)c1-n1cc(Cl)cn1 [Example 1-72]
Post-emergence efficacy at 320 g/ha against AMARE in % [1]: 100%
Post-emergence efficacy at 320 g/ha against KCHSC in % [2]: 90%
Post-emergence efficacy at 320 g/ha against VERPE in % [3]: 90%
Pre-emergence efficacy at 320 g/ha against AMARE in % [4]: 100%
Pre-emergence efficacy at 320 g/ha against DIGSA in % [9]: 90%
Pre-emergence efficacy at 320 g/ha against KCHSC in % [10]: 90%
Pre-emergence efficacy at 320 g/ha against SETVI in % [7]: 90%
Pre-emergence efficacy at 320 g/ha against VERPE in % [11]: 90%

N#Cc1ccc(Nc2cccc(C#N)c2-n2cc(C(F)(F)F)cn2)nc1 [Example 1-58]
Post-emergence efficacy at 320 g/ha against AMARE in % [1]: 90%
Post-emergence efficacy at 320 g/ha against VERPE in % [3]: 90%

Fc1cnc(Nc2ccccc2CCCC(F)(F)F)nc1 [Example 1-3]
Post-emergence efficacy at 320 g/ha against AMARE in % [1]: 90%
Post-emergence efficacy at 320 g/ha against VERPE in % [3]: 90%

O=S(=O)(CCC(F)(F)F)Oc1c(F)cccc1Nc1ncc(Cl)cn1 [Example 1-16]
Post-emergence efficacy at 320 g/ha against VERPE in % [3]: 90%
Pre-emergence efficacy at 320 g/ha against AMARE in % [4]: 90%

Cc1ccc(Nc2ncc(Cl)cn2)c(-n2cc(C(F)(F)F)cn2)c1C#N [Example 1-45]
Pre-emergence efficacy at 320 g/ha against STEME in % [8]: 100%

Fc1cnc(Nc2ccccc2SCCCC(F)(F)F)nc1 [Example 1-7]
Post-emergence efficacy at 320 g/ha against ABUTH in % [6]: 90%
Post-emergence efficacy at 320 g/ha against AMARE in % [1]: 100%
Post-emergence efficacy at 320 g/ha against KCHSC in % [2]: 90%
Post-emergence efficacy at 320 g/ha against STEME in % [5]: 90%
Post-emergence efficacy at 320 g/ha against VERPE in % [3]: 100%
Pre-emergence efficacy at 320 g/ha against AMARE in % [4]: 90%

O=S(=O)(CCC(F)(F)F)Oc1c(F)cccc1Nc1ncc(F)cn1 [Example 1-17]
Post-emergence efficacy at 320 g/ha against AMARE in % [1]: 90%

Cc1cc(C)c(-c2cc(C(F)F)no2)c(Nc2ncc(Cl)cn2)n1 [Example 2-4]
Post-emergence efficacy at 320 g/ha against KCHSC in % [2]: 90%
Post-emergence efficacy at 320 g/ha against STEME in % [5]: 100%
Pre-emergence efficacy at 320 g/ha against STEME in % [8]: 90%

Fc1cc(Cl)cnc1Nc1cccc(F)c1-c1cc(C(F)F)no1 [Example 1-57]
Post-emergence efficacy at 320 g/ha against KCHSC in % [2]: 90%

Fc1ccc(-c2ccccc2Nc2ncc(Cl)cn2)cc1F [Example 1-28]
Post-emergence efficacy at 320 g/ha against AMARE in % [1]: 100%
Post-emergence efficacy at 320 g/ha against VERPE in % [3]: 100%

FC(F)(F)CCCc1ccccc1Nc1ncc(Cl)cn1 [Example 1-1]
Post-emergence efficacy at 320 g/ha against ABUTH in % [6]: 90%
Post-emergence efficacy at 320 g/ha against AMARE in % [1]: 90%
Post-emergence efficacy at 320 g/ha against VERPE in % [3]: 90%
Pre-emergence efficacy at 320 g/ha against AMARE in % [4]: 90%
Pre-emergence efficacy at 320 g/ha against SETVI in % [7]: 90%

FC(F)(F)c1cnn(-c2ccccc2Nc2ncc(Cl)cn2)c1 [Example 1-78]
Post-emergence efficacy at 320 g/ha against STEME in % [5]: 90%
Post-emergence efficacy at 320 g/ha against VERPE in % [3]: 90%
Pre-emergence efficacy at 320 g/ha against AMARE in % [4]: 100%
Pre-emergence efficacy at 320 g/ha against SETVI in % [7]: 90%

Fc1cccc(Nc2ccc(Cl)cn2)c1-c1cc(C(F)F)no1 [Example 1-56]
Post-emergence efficacy at 320 g/ha against AMARE in % [1]: 90%
Post-emergence efficacy at 320 g/ha against VERPE in % [3]: 90%

O=S(=O)(CCCC(F)(F)F)Oc1c(F)cccc1Nc1ncc(Cl)cn1 [Example 1-14]
Post-emergence efficacy at 320 g/ha against AMARE in % [1]: 90%
Post-emergence efficacy at 320 g/ha against VERPE in % [3]: 90%
Pre-emergence efficacy at 320 g/ha against AMARE in % [4]: 90%

N#Cc1cccc(Nc2ncc(Cl)cc2F)c1-n1cc(C(F)(F)F)cn1 [Example 1-54]
Post-emergence efficacy at 320 g/ha against AMARE in % [1]: 100%
Post-emergence efficacy at 320 g/ha against KCHSC in % [2]: 90%
Post-emergence efficacy at 320 g/ha against VERPE in % [3]: 100%

N#Cc1cccc(Nc2ncc(Cl)cn2)c1-n1cccn1 [Example 1-64]
Post-emergence efficacy at 320 g/ha against AMARE in % [1]: 100%
Post-emergence efficacy at 320 g/ha against KCHSC in % [2]: 100%
Post-emergence efficacy at 320 g/ha against STEME in % [5]: 90%
Post-emergence efficacy at 320 g/ha against VERPE in % [3]: 90%
Pre-emergence efficacy at 320 g/ha against AMARE in % [4]: 100%
Pre-emergence efficacy at 320 g/ha against DIGSA in % [9]: 90%
Pre-emergence efficacy at 320 g/ha against KCHSC in % [10]: 90%
Pre-emergence efficacy at 320 g/ha against SETVI in % [7]: 100%

FC(F)(F)CCCSc1ccccc1Nc1ncc(Cl)cn1 [Example 1-4]
Post-emergence efficacy at 320 g/ha against AMARE in % [1]: 90%

Cc1ccc(Nc2ncc(F)cn2)c(-n2cc(C(F)(F)F)cn2)c1C#N [Example 1-46]
Post-emergence efficacy at 320 g/ha against AMARE in % [1]: 90%
Post-emergence efficacy at 320 g/ha against VERPE in % [3]: 90%
Pre-emergence efficacy at 320 g/ha against DIGSA in % [9]: 90%

O=S(=O)(CCCC(F)(F)F)Oc1c(F)cccc1Nc1ncc(F)cn1 [Example 1-15]
Post-emergence efficacy at 320 g/ha against AMARE in % [1]: 90%
Post-emergence efficacy at 320 g/ha against VERPE in % [3]: 90%
